In paper PMC6366418, “Evaluation of a flavonoids library for inhibition of pancreatic α-amylase towards a structure–activity relationship” (Journal of Enzyme Inhibition and Medicinal Chemistry, 2019):
“Also recorded” adds a separate entry of the source. Read-outs that look alike come from different tables or passages of the source.

Columns and labels:
[1] = molecular target: T1, porcine pancreatic α-amylase (Sus scrofa, UniProt P00690); test: In vitro pancreatic α-amylase inhibition assay (CNPG3 substrate, 405 nm); assay type: biochemical; details: for IC50: enzyme 0.2 U/mL, CNPG3 0.5 mM, pH 6.8, 37 °C; for Inhibition of α-amylase activity (in words): up to the highest tested concentration (200 µM);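 for all read-outs here: enzyme rate taken from the absorbance slope between 5 and 30 min of CNPG3 hydrolysis, inhibition derived from these rates, at least three independent experiments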
T1 construct: α-Amylase from porcine pancreas; purchased Sigma-Aldrich Co. LLC (St. Louis, MO); host or cells: porcine pancreas (tissue-derived commercial preparation)
T1 sequence (P00690 16-511): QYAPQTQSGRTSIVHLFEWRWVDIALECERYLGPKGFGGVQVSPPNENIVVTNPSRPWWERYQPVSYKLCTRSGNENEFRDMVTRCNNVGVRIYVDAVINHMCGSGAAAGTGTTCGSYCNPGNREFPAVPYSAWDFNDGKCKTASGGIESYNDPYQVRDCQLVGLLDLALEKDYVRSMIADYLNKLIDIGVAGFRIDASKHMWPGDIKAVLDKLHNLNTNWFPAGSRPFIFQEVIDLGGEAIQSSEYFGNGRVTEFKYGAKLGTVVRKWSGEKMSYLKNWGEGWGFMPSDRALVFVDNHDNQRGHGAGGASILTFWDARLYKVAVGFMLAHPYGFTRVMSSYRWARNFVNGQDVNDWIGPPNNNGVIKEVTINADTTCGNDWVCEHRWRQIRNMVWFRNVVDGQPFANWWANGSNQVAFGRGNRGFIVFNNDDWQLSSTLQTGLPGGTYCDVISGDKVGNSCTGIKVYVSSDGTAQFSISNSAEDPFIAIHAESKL

[2] = system: α-amylase; set-up: method as in Kim et al.[55] and Yoon and Robyt,[52]; details: ref Kim et al.[55] and Yoon and Robyt,[52]; cited from earlier work
[3] = molecular target: T2, α-amylase from porcine pancreas (Sus scrofa, UniProt P00690); test: Inhibitory kinetics of α-amylase (nonlinear regression, Excel Solver); assay type: biochemical; details: for Type of inhibition: CNPG3 0.25, 0.5 and 1 mM, best model by F test and AIC; for Vmax: best model; for V max (Solver fit): rate axis DA/min
T2 construct: α-Amylase from porcine pancreas; purchased Sigma-Aldrich Co. LLC (St. Louis, MO); host or cells: porcine pancreas (tissue-derived commercial preparation)
T2 sequence (P00690 16-511): T1 sequence (P00690 16-511)

[4] = molecular target: T1, porcine pancreatic α-amylase; set-up: method as in Tadera et al.,[21]; details: highest tested concentration of 0.5 mM; ref Tadera et al.,[21]; cited from earlier work
[5] = 200 µM, mean ± SEM, read-out: Inhibition (%) at the highest tested concentration
[6] = competitive inhibition constant, ± SD (jackknife), read-out: Kic
[7] = supplement, competitive inhibition model
[8] = supplement, competitive inhibition model, read-out: K ic (Solver fit)

O=c1cc(-c2ccccc2)oc2ccccc12 [A1, Flavone]
inhibition at 200 µM [1, 5]: < 20%

O=c1cc(-c2cccc(O)c2)oc2ccccc12 [A2]
inhibition at 200 µM [1, 5]: < 20%

O=c1cc(-c2ccc(O)cc2)oc2ccccc12 [A3]
inhibition at 200 µM [1, 5]: < 20%

O=c1cc(-c2ccc(O)c(O)c2)oc2ccccc12 [A4]
inhibition at 200 µM [1, 5]: 46 ± 2%

O=c1c(O)c(-c2ccc(O)c(O)c2)oc2ccccc12 [A5]
inhibition at 200 µM [1, 5]: 31 ± 3%

COc1ccc(-c2oc3ccccc3c(=O)c2O)cc1OC [A6]
inhibition at 200 µM [1, 5]: < 20%

C[C@H]1O[C@H](O[C@H]2[C@H](O)[C@@H](O)[C@@H](O[C@H]3[C@H](O)[C@@H](O)C(O)O[C@@H]3CO)O[C@@H]2CO)[C@H](O)[C@@H](O)[C@@H]1N[C@H]1C=C(CO)[C@@H](O)[C@H](O)[C@H]1O (stereo partly drawn) [Acarbose, reference compound]
Type of inhibition [2]: mixed type inhibitor
Type of inhibition [3]: Mixed
Type of inhibition ([3]; listed as acarbose): mixed-type inhibitor; also recorded: mixed-type inhibition
Vmax ([3]; ± SD (jackknife)): 12.0 ± 0.9 µmol/min
V max (Solver fit) ([3]; supplement, mixed inhibition model): 39,76745004

O=c1cc(-c2ccccc2)oc2cccc(O)c12 [B1]
inhibition at 200 µM [1, 5]: < 2%

O=c1cc(-c2cccc(O)c2)oc2cccc(O)c12 [B2]
inhibition at 200 µM [1, 5]: < 20%

O=c1cc(-c2ccc(O)cc2)oc2cccc(O)c12 [B3]
inhibition at 200 µM [1, 5]: < 20%

O=c1cc(-c2ccc(O)c(O)c2)oc2cccc(O)c12 [B4]
Type of inhibition [3]: competitive inhibitors; also recorded: competitive inhibition
Vmax ([3]; ± SD (jackknife)): 12.0 ± 0.6 µmol/min
Ki [3, 6]: 132 ± 15 µM
V max (Solver fit) [3, 7]: 40,026555
Ki [3, 8]: 132 µM
IC50 ([1]; mean ± SEM): 148 ± 5 µM

O=c1cc(-c2ccccc2)oc2cc(O)ccc12 [C1]
inhibition at 200 µM ([1]; read-out: Inhibition (%) at the highest tested concentration): < 20%

O=c1cc(-c2cccc(O)c2)oc2cc(O)ccc12 [C2]
inhibition at 200 µM [1, 5]: 28 ± 3%

O=c1cc(-c2ccc(O)cc2)oc2cc(O)ccc12 [C3]
inhibition at 200 µM [1, 5]: 36 ± 3%
Inhibition of α-amylase activity (in words) [1]: lack of inhibitory activity

O=c1c(O)c(-c2cccc(O)c2)oc2cc(O)ccc12 [C4]
inhibition at 200 µM [1, 5]: 34 ± 3%
Inhibition of α-amylase activity (in words) [1]: low activity

O=c1c(O)c(-c2ccc(O)cc2)oc2cc(O)ccc12 [C5]
Type of inhibition [3]: competitive inhibitors; also recorded: competitive inhibition
Vmax ([3]; ± SD (jackknife)): 10.5 ± 0.9 µmol/min
Ki [3, 6]: 71 ± 7 µM
K m (Solver fit) [3, 7]: 0,9963 mM
V max (Solver fit) [3, 7]: 35,186
Ki [3, 8]: 71.4 µM
IC50 ([1]; mean ± SEM): 59 ± 4 µM

O=c1cc(-c2ccc(O)c(O)c2)oc2cc(O)ccc12 [C6]
IC50 ([1]; mean ± SEM): 131 ± 1 µM

COc1cccc(-c2oc3cc(OC)ccc3c(=O)c2O)c1 [C7]
inhibition at 200 µM [1, 5]: < 20%
Inhibition of α-amylase activity (in words) [1]: remained unchanged; also recorded: no inhibitory activity

COc1ccc(-c2oc3cc(OC)ccc3c(=O)c2O)cc1 [C8]
inhibition at 100 µM ([1]; 100 µM, mean ± SEM, read-out: Inhibition (%) at the highest tested concentration): < 20%
Inhibition of α-amylase activity (in words) [1]: remained unchanged; also recorded: no inhibitory activity

O=c1cc(-c2ccccc2)oc2cc(O)cc(O)c12 [D1, Chrysin]
inhibition at 200 µM [1, 5]: 22 ± 3%

O=c1c(O)c(-c2ccccc2)oc2cc(O)cc(O)c12 [D2, Galangin]
inhibition at 200 µM [1, 5]: < 20%

O=c1cc(-c2cccc(O)c2)oc2cc(O)cc(O)c12 [D4]
IC50 ([1]; mean ± SEM): ~200 µM

O=c1c(O)c(-c2ccc(O)cc2)oc2cc(O)cc(O)c12 [D6, Kaempferol]
IC50 ([1]; mean ± SEM): 118 ± 7 µM

O=c1cc(-c2ccc(O)c(O)c2)oc2cc(O)cc(O)c12 [D7, Luteolin]
Decrease of inhibitory activity / increase of IC50 compared with D11 ([1]; fold, relative to D11): two-fold
IC50 ([1]; mean ± SEM): 78 ± 3 µM

O=c1c(O)c(-c2cc(O)c(O)c(O)c2)oc2cc(O)cc(O)c12 [D9, Myricetin]
IC50 ([1]; mean ± SEM): 107 ± 6 µM

COc1ccc(-c2cc(=O)c3c(O)cc(O)cc3o2)cc1OC [D18]
inhibition at 200 µM [1, 5]: 33 ± 3%

C[C@@H]1O[C@@H](OC[C@H]2O[C@@H](Oc3c(-c4ccc(O)c(O)c4)oc4cc(O)cc(O)c4c3=O)[C@H](O)[C@@H](O)[C@@H]2O)[C@H](O)[C@H](O)[C@H]1O [D19, Rutin]
inhibition at 200 µM [1, 5]: < 20%
Inhibition of α-amylase activity (in words) [1]: no activity was found

O=C1C[C@@H](c2ccc(O)cc2)Oc2cc(O)cc(O)c21 [E1, Naringenin]
inhibition at 200 µM [1, 5]: < 20%
Inhibition of α-amylase activity (in words) [1]: not able to inhibit
Inhibition of porcine pancreatic α-amylase activity (in words) [4]: not able to inhibit

O=C1C[C@@H](c2ccc(O)c(O)c2)Oc2cc(O)cc(O)c21 [E2, Eriodictyol]
inhibition at 200 µM [1, 5]: < 20%
Inhibition of α-amylase activity (in words) [1]: not able to inhibit

O=C1c2c(O)cc(O)cc2OC(c2ccc(O)c(O)c2)C1O (stereo not drawn) [E3, Taxifolin]
inhibition at 200 µM [1, 5]: < 20%
Inhibition of α-amylase activity (in words) [1]: not able to inhibit

Acacetin [D17]
Inhibition (%) at the highest tested concentration ([1]; 200 µM, mean ± SEM): <20%^200 µM*

Morin [D10]
Inhibition (%) at the highest tested concentration ([1]; 200 µM, mean ± SEM): 23 ± 1 %^200µM*
